Experimental data from article PMC11809514, “Investigation of the activity of 4-aminoquinolines as cysteine protease inhibitors with application in the treatment of Chagas disease” (Memórias do Instituto Oswaldo Cruz, 2025).
Where two headings read alike, the source gives them in different places.

Columns and labels:
Recombinant cruzain = target: T1, Recombinant cruzain (Trypanosoma cruzi, UniProt P25779); test: Cruzain inhibition, cleavage of fluorogenic substrate Z-FR-AMC; format: biochemical; details: for inhibition at 23 µM: compound at 23 µM
T1 construct: gift: Allison Doak and Prof Brian Shoichet (University of California San Francisco)
T1 sequence (P25779 123-467): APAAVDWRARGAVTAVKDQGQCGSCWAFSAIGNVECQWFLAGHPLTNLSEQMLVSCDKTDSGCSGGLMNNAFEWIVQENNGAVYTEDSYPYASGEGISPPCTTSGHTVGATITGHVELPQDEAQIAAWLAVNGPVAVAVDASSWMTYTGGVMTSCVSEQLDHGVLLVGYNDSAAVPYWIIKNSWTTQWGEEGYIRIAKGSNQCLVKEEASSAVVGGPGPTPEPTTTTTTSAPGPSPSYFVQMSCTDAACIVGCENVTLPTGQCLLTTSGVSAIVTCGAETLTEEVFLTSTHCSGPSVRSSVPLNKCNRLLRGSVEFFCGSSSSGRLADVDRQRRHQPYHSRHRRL
Description: (§1) Assays against cruzain and TbrCATL - Recombinant cruzain and TbrCatL were generously provided by Allison Doak and Prof Brian Shoichet (University of California San Francisco, San Francisco, CA, USA) and Prof Conor Caffrey (University of California San Diego, San Diego, CA, USA), respectively. Enzyme activity was measured by monitoring the cleavage of the fluorogenic substrate Z-Phe-Arg-amidomethylcoumarin (Z-FR-AMC) at 25 °C. Fluorescence was monitored at 340/440 nm (excitation/emission) in a Biotec 87 Synergy 2 fluorimeter. Assays were conducted in 96-well flat bottom black plates in 0.1 M sodium acetate buffer, pH 5.5, 10 mM β-mercaptoethanol, 0.01% Triton X-100, […] enzyme and 2.5 µM substrate. DMSO and 1 µM E-64 were employed as negative and positive controls, respectively, in all assays. Assays were performed in triplicate, and enzyme activity was measured for 5 min. Reported values correspond to the mean and standard error of the mean (SEM).
(§2) Compounds were initially screened at a concentration of 100 µM against cruzain with and without a 10 min pre-incubation with the enzyme. […] IC50 values were determined from two independent experiments, each with seven compounds concentrations in triplicate. Dose-response curves were built by non-linear regression with Graph Pad Prism 6.
To evaluate the effects of Triton X-100 concentration on enzyme inhibition, assays were conducted using 0.1%, 0.01% and 0% Triton X-100. To access the impact of pre-incubation of bovine serum albumin (BSA) on enzyme inhibition, compounds were incubated with BSA (4 mg/mL, for a final assay concentration of 1 mg/mL) for 10’ followed by 10’ incubation with 2 nM enzyme. Finally, Z-FR-AMC was added to each well and the fluorescence was immediately read.

Recombinant TbrCatL = target: T2, Recombinant TbrCatL (Trypanosoma brucei rhodesiense, UniProt Q95PM0); test: TbrCatL inhibition, cleavage of fluorogenic substrate Z-FR-AMC; format: biochemical, T. brucei
T2 construct: gift: Prof Conor Caffrey (University of California San Diego)
T2 sequence (Q95PM0 entry or part of it): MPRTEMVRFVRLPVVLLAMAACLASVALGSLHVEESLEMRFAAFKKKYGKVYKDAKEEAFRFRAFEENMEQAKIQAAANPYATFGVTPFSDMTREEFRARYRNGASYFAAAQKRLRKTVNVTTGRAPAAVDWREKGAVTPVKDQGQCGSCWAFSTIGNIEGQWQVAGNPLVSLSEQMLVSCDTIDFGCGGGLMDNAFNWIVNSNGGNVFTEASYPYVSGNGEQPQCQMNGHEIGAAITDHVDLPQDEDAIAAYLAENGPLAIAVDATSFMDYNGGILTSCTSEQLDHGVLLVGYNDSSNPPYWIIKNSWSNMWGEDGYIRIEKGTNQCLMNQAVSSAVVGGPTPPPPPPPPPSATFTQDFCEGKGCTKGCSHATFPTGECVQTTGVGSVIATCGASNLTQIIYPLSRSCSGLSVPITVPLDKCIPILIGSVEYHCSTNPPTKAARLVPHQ
Description: as §1, §2

[1] = test system: T. cruzi Tulahuen strain (amastigotes and trypomastigotes); test: Anti-T. cruzi activity assay (amastigotes and trypomastigotes) in infected L929 cells, beta-galactosidase reporter; format: cell-based, Trypanosoma cruzi; details: 96 h exposure
Description: Anti-T. cruzi activity assay (amastigotes and trypomastigotes) - The in vitro anti-T. cruzi activity was evaluated on L929 cells (mouse fibroblasts) infected with Tulahuen strain of the parasite expressing the Escherichia coli β-galactosidase as reporter gene according to the method described previously.[49] Briefly, for the bioassay, 4,000 L929 cells were added to each well of a 96-well microtiter plate. After an overnight incubation, 40,000 trypomastigotes were added to the cells and incubated for 2 h. Then the medium containing extracellular parasites was replaced with 200 μL of fresh medium and the plate was incubated for an additional 48 h to establish the infection. For IC50 determination, the cells were exposed to each synthesized compound at serial decreasing dilutions and the plate was incubated for 96 h. After this period, 50 μL of 500 μM chlorophenol red beta-D-galactopyranoside (CPRG) in 0.5% Nonidet P40 was added to each well, and the plate was incubated for 16 to 20 h, after which the absorbance at 570 nm was measured. Controls with uninfected cells, untreated infected cells, infected cells treated with benznidazole at 3.8 μM (positive control) or DMSO 1% were used. The results were expressed as the percentage of T. cruzi growth inhibition in compound tested cells as compared to the infected cells and untreated cells. The IC50 values were calculated by linear interpolation. Quadruplicates were run in the same plate, and the experiments were repeated at least once.
(§3) IC50 over T. cruzi and L929 cells were determined by linear interpolation and the selectivity index (SI) was calculated by the ratio of CC50 L929 cells/ IC50 T. cruzi.

[2] = In vitro cytotoxicity over L929 cell line (alamarBlue); format: cell-based, mouse; details: mouse, L929 cells (mouse fibroblasts); uninfected L929 cells; 96 h incubation
Description: (§4) In vitro cytotoxic activity test of compounds and CC 50 determination over L929 cell line - For this bioassay, 4,000 L929 cells in 200 μL of RPMI-1640 medium (pH 7.2-7.4) (Gibco BRL) plus 10% foetal bovine serum and 2 mM glutamine were added to each well of a 96-well microtiter plate that was incubated for three days at 37 °C. The medium was then replaced, and the cells were exposed to compounds at increasing concentrations starting at IC50 value for T. cruzi. After 96 h of incubation with the compounds the alamarBlueTM was added and the absorbance at 570 and 600 nm was measured after 4-6 h. Controls with untreated and DMSO 1%-treated cells were run in parallel. The results were expressed as the percent difference in the reduction between treated and untreated cells. The compound concentration that inhibits 50% of the L929 cell viability (CC50) was determined. Quadruplicates were run in the same plate and the experiments were repeated at least once.
as §3

[3] = test system: L929 cells (mouse fibroblasts); test: as above; format: cell-based; details: ratio CC50 L929 / IC50 T. cruzi
Description: as §4, §3

mammalian cathepsin S = test system: mammalian cathepsin S; parameters: method as in PMID 28215783, PMID 32116030; details: cited from earlier work
mammalian cathepsin B = test system: mammalian cathepsin B; parameters: method as in PMID 28215783, PMID 32116030; details: cited from earlier work
cruzain = details: cited from earlier work
[4] = 100 µM compound, 10 min pre-incubation with enzyme, 0.01% Triton X-100, read-out: % Inhibition at 100 µM (Mean ± SEM) Cruzain 10' pre-incubation
[5] = 100 µM compound, no pre-incubation, 0.01% Triton X-100, read-out: % Inhibition at 100 µM (Mean ± SEM) Cruzain No pre-incubation
[6] = 100 µM compound, 10 min pre-incubation with enzyme, read-out: % Inhibition at 100 µM (Mean ± SEM) TbrCATL 10' pre-incubation

Question: Which results are given for `Clc1ccc2c(NC3CCCCC3)ccnc2c1` [Compound 4, 7-chloro-N-cyclohexylquinolin-4-amine]?
Answer: inhibition at 100 µM (Recombinant cruzain; [4]): 18 ± 2%; inhibition at 100 µM (Recombinant cruzain; [5]): 19 ± 1%; inhibition at 100 µM (Recombinant TbrCatL; [6]): 38 ± 4%; IC50 ([1]; Trypanosoma cruzi): 2.57 ± 0.11 µM; CC50 at 96 h [2]: < 2.3 µM

Question: For “N-butyl-7-chloroquinolin-4-amine [Compound 6]”, which “% Inhibition at 100 µM (Mean ± SEM) Cruzain 10' pre-incubation” value (Recombinant cruzain; 100 µM compound, 10 min pre-incubation with enzyme, 0.01% Triton X-100) is on record?
Answer: 35 ± 1%

Question: What about the “% Inhibition at 100 µM (Mean ± SEM) Cruzain No pre-incubation” value (Recombinant cruzain; 100 µM compound, no pre-incubation, 0.01% Triton X-100) of the same compound?
Answer: 35 ± 1%

Question: What about the “% Inhibition at 100 µM (Mean ± SEM) TbrCATL 10' pre-incubation” value (Recombinant TbrCatL; 100 µM compound, 10 min pre-incubation with enzyme) of the same compound?
Answer: 42 ± 4%

Question: And the IC50 [1]?
Answer: 150 µM

Question: What does the source list for `Clc1ccc2c(NCc3ccco3)ccnc2c1` [Compound 5, 7-chloro-N-(furan-2-ylmethyl)quinolin-4-amine]?
Answer: inhibition at 100 µM (Recombinant cruzain; [4]): 99 ± 1%; inhibition at 100 µM (Recombinant cruzain; [5]): 93 ± 1%; inhibition at 23 µM (Recombinant cruzain; 0.01% Triton X-100, read-out: % Inhibition of cruzain (Mean ± SEM) Triton 0.01%): 28.4 ± 2%; inhibition at 23 µM (Recombinant cruzain; 0.1% Triton X-100, read-out: % Inhibition of cruzain (Mean ± SEM) Triton 0.1%): 28.4 ± 3%; inhibition at 23 µM (Recombinant cruzain; no Triton X-100, read-out: % Inhibition of cruzain (Mean ± SEM) Triton 0%): 100 ± 1%; inhibition at 23 µM (Recombinant cruzain; pre-incubation with BSA (final 1 mg/mL), no Triton X-100, read-out: % Inhibition of cruzain (Mean ± SEM) BSA + Triton 0%): 32.2 ± 1%; IC50 (Recombinant cruzain; two independent experiments, seven concentrations in triplicate, read-out: IC50 against cruzain): 23 µM; inhibition at 100 µM (Recombinant TbrCatL; [6]): 94 ± 1%; inhibition at 100 µM (Recombinant TbrCatL; 100 µM compound, no pre-incubation, read-out: % Inhibition at 100 µM (Mean ± SEM) TbrCATL No pre-incubation): 87 ± 3%; IC50 (Recombinant TbrCatL; two independent experiments, seven concentrations in triplicate, read-out: IC50 against TbrCatL): 29 µM; IC50 ([1]; Trypanosoma cruzi): 143 µM

Question: What does the source list for `O=C(Cn1ccnc1[N+](=O)[O-])NCc1ccccc1` [Benznidazole, reference compound]?
Answer: IC50 ([1]; Trypanosoma cruzi): 3.8 ± 0.8 µM; SI (selectivity index), CC50 L929 cells / IC50 T. cruzi [3]: 626

Question: Which results are given for `CC(C)(CN)CNc1ccnc2cc(Cl)ccc12` [Compound 3]?
Answer: Inhibition of mammalian cathepsin S (mammalian cathepsin S): did not inhibit; Inhibition of mammalian cathepsin B (mammalian cathepsin B): did not inhibit

Question: What does the source list for `Clc1ccc2[nH]c3c(NCCCN4CCOCC4)ncnc3c2c1` [Compound 1]?
Answer: IC50 (cruzain; hit from HTS): 2.5 µM; Ki (cruzain; non-covalent competitive inhibitor from HTS): 2 µM

Question: Which results are given for `Clc1ccc2c(NCCCN3CCOCC3)ccnc2c1` [Compound 2]?
Answer: Inhibition of mammalian cathepsin S (mammalian cathepsin S): did not inhibit; Inhibition of mammalian cathepsin B (mammalian cathepsin B): did not inhibit
